Drawing on ChEMBL document CHEMBL1128789, “Constrained analogs of KCVFM with improved inhibitory properties against farnesyl transferase” (Bioorg Med Chem Lett, 1995), this text covers IC50 for 13 compounds.

In this assay the target is Protein farnesyltransferase (Rattus norvegicus, UniProt Q02293+Q04631). The assay can be described thus: Inhibition of farnesyl transferase (FTase) of rat brain.

By IC50 is commonly meant the concentration that gives 50% inhibition. Read a low IC50 as greater potency in that assay.

Compound `CSCC[C@H](NC(=O)[C@@H]1Cc2ccccc2CN1C(=O)[C@@H](NC(=O)[C@H](S)NC(=O)C(N)CCCCN)C(C)C)C(=O)O` (single isomer, unassigned) displayed an IC50 of 20 nM.
Take `CSCC[C@H](NC(=O)[C@@H]1Cc2ccccc2CN1C(=O)[C@H](NC(=O)[C@H](CS)NC(=O)[C@@H](N)CCCCN)C(C)C)C(=O)O` (stereo in doubt; form 2): the IC50 was determined as 50000 nM.
For `CSCC[C@H](NC(=O)[C@@H]1Cc2ccccc2CN1C(=O)C(NC(=O)[C@H](S)NC(=O)C(N)CCCCN)C(C)C)C(=O)O` (single isomer, unassigned; form 1) the value was 100000 nM.
In the case of `CSCC[C@H](NC(=O)[C@H]1Cc2ccccc2CN1C(=O)[C@H]1CCCN1C(=O)[C@H](CS)NC(=O)[C@@H](N)CCCCN)C(=O)O` it was 100000 nM.
For `CSCC[C@H](NC(=O)[C@@H]1Cc2ccccc2CN1C(=O)[C@@H](NC(=O)[C@H](S)NC(=O)[C@H](N)CCCCN)C(C)(C)C)C(=O)O` the value was 40 nM; for `CSCC[C@H](NC(=O)[C@@H]1Cc2ccccc2CN1C(=O)[C@H](NC(=O)[C@H](CS)NC(=O)[C@@H](N)CCCCN)C(C)C)C(=O)O` (stereo in doubt; form 1), 100000 nM; for `CSCC[C@H](NC(=O)[C@@H](NC(=O)[C@@H](NC(=O)[C@H](S)NC(=O)[C@H](N)CCCCN)C(C)(C)C)c1ccccc1)C(=O)O`, 1000 nM.
`CSCC[C@H](NC(=O)[C@@H](NC(=O)[C@H](C(C)C)N(C)C(=O)[C@H](S)NC(=O)[C@H](N)CCCCN)c1ccccc1)C(=O)O` yielded an IC50 of 1000 nM.
The compound `CSCC[C@H](NC(=O)[C@@H]1Cc2ccccc2CN1C(=O)C(NC(=O)[C@H](S)NC(=O)C(N)CCCCN)C(C)C)C(=O)O` (single isomer, unassigned; form 2) displayed an IC50 of 15000 nM.
For `CSCC[C@H](NC(=O)[C@H](Cc1ccccc1)NC(=O)[C@H](C(C)C)N(C)C(=O)[C@H](S)NC(=O)[C@H](N)CCCCN)C(=O)O` the value was 1000 nM.
For `CSCC[C@H](NC(=O)[C@@H]1Cc2ccccc2CN1C(=O)[C@@H]1CCCN1C(=O)[C@H](S)NC(=O)C(N)CCCCN)C(=O)O` (single isomer, unassigned) the value was 2000 nM; for `CSCC[C@H](NC(=O)[C@H](Cc1ccccc1)NC(=O)[C@@H](NC(=O)[C@H](S)NC(=O)[C@H](N)CCCCN)C(C)C)C(=O)O`, 1000 nM; for `CSCC[C@H](NC(=O)[C@@H]1Cc2ccccc2CN1C(=O)[C@H](C(C)C)N(C)C(=O)[C@H](S)NC(=O)[C@H](N)CCCCN)C(=O)O`, 5 nM.
